This is an account of results in ChEMBL document CHEMBL4715866, “A Chemical Probe for Dark Kinase STK17B Derives Its Potency and High Selectivity through a Unique P-Loop Conformation” (J Med Chem, 2020).

Values after ≈ are worked out from the molar mass of the structure shown.

Data set [1] deals with T1, Serine/threonine-protein kinase 17B (Homo sapiens, UniProt O94768).
T1 sequence (O94768 whole entry): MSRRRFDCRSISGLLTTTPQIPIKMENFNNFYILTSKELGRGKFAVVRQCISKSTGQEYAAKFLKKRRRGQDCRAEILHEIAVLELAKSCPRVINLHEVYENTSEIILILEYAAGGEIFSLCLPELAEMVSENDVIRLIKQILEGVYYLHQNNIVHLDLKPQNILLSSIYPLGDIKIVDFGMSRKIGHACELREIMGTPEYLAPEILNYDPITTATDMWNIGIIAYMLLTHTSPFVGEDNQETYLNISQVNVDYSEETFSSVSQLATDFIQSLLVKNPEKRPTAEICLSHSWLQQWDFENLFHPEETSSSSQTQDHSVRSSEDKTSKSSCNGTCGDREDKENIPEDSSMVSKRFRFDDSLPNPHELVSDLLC
Nature of the data set: Binding affinity to N-terminal His-tagged STK17B kinase domain (25 to 329 residues) (unknown origin) expressed in Escherichia coli by KINOMEscan scanMAX assay.

For data set [2], the target named is T1, Serine/threonine-protein kinase 17B. Put plainly: Inhibition of N-terminal His-tagged STK17B kinase domain (25 to 329 residues) (unknown origin) expressed in Escherichia coli incubated for 90 mins by Kinase seeker split luciferase assay.
Data set [3] in a line: Stability in mouse liver microsomes assessed as compound remaining at 0.1 mM in presence of NADPH regeneration system after 30 mins by LC-MS/MS analysis. The format is ADME, Microsome. As to conditions: read-out: Stabilty.
Data set [4] can be described thus: Kinetic solubility in pH 7.4 PBS. The format is physicochemical. Particulars: read-out: Kinetic_solubility.
In data set [5] the target is T2, Hepatocyte growth factor receptor (Homo sapiens, UniProt P08581). Nature of the data set: Binding affinity to human MET assessed as displacement of immobilized ligand by KINOMEscan scanMAX assay relative to control.
T2 sequence (P08581 whole entry): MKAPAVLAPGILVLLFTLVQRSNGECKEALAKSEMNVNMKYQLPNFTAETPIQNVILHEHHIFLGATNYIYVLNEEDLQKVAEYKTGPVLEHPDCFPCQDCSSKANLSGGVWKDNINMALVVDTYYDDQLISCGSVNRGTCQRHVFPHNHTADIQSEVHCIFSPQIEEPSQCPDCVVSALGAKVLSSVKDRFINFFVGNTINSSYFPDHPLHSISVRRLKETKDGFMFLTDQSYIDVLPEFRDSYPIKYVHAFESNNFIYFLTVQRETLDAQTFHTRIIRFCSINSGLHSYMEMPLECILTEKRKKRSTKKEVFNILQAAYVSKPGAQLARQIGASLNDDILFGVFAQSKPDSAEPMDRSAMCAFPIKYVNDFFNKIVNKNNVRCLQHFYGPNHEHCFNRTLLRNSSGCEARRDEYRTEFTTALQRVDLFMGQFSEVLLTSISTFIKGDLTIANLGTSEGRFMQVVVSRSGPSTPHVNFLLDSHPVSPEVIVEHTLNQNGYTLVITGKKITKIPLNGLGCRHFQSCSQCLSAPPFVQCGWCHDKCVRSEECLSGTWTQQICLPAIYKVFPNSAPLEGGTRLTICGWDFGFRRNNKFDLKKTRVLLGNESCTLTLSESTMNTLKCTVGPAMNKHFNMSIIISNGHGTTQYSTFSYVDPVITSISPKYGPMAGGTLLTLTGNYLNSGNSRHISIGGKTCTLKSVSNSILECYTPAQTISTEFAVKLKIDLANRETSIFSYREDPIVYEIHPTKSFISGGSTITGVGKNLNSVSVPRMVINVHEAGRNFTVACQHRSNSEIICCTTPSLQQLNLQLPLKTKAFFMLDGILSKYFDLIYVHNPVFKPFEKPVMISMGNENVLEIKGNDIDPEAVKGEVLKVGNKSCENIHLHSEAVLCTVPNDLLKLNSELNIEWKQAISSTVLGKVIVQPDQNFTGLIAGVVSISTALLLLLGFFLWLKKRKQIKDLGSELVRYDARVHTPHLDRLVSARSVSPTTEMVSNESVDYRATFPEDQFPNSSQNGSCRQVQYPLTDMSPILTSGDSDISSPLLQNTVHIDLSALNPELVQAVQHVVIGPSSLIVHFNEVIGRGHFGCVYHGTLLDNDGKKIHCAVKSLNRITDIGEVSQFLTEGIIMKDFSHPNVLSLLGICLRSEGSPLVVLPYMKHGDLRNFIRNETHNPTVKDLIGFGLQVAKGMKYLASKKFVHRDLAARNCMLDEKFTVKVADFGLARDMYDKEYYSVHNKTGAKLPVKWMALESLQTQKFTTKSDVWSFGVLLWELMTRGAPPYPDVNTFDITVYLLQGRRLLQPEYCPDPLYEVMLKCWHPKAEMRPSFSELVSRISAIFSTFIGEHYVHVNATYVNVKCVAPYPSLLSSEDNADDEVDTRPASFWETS
Data set [6] deals with T3, Serine/threonine-protein kinase Nek6 (Homo sapiens, UniProt Q9HC98). Nature of the data set: Binding affinity to human NEK6 assessed as displacement of immobilized ligand by KINOMEscan scanMAX assay relative to control.
T3 sequence (Q9HC98 whole entry): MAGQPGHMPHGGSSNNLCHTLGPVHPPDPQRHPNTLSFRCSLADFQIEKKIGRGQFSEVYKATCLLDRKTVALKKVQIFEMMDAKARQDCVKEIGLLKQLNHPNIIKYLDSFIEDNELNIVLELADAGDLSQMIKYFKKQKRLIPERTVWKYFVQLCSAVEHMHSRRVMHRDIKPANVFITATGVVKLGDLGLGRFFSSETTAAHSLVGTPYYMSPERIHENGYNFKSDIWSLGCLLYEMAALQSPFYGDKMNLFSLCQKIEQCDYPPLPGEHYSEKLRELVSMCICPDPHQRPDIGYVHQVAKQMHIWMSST
Data set [7] has as its target T4, Serine/threonine-protein kinase pim-2 (Homo sapiens, UniProt Q9P1W9). Nature of the data set: Binding affinity to human PIM2 assessed as displacement of immobilized ligand by KINOMEscan scanMAX assay relative to control.
Data set [8] addresses T5, Wee1-like protein kinase (Homo sapiens, UniProt P30291). Nature of the data set: Binding affinity to human WEE1 assessed as displacement of immobilized ligand by KINOMEscan scanMAX assay relative to control.
The target of data set [9] is T1, Serine/threonine-protein kinase 17B. Nature of the data set: Binding affinity to human STK17B assessed as displacement of immobilized ligand by KINOMEscan scanMAX assay relative to control.
For data set [10], the target named is T6, Calcium/calmodulin-dependent protein kinase kinase 2 (Homo sapiens, UniProt Q96RR4). Put plainly: Binding affinity to human CAMKK2 assessed as displacement of immobilized ligand by KINOMEscan scanMAX assay relative to control.
T6 sequence (Q96RR4 whole entry): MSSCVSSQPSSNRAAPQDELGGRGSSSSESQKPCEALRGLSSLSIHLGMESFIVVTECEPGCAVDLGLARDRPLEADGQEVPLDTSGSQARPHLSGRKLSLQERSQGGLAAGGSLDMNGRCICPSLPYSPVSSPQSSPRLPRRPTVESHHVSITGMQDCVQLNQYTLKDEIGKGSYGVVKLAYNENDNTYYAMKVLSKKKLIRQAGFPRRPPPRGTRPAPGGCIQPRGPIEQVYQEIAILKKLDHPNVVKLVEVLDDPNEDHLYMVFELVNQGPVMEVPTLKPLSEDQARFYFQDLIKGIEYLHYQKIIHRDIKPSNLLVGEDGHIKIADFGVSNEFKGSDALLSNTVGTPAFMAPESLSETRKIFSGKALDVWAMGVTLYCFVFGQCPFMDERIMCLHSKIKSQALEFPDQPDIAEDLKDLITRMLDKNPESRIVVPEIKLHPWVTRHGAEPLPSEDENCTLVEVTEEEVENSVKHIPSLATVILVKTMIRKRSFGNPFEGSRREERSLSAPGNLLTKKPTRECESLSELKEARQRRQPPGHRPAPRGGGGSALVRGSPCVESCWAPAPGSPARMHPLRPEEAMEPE
The target in data set [11] is T7, Aurora kinase B (Homo sapiens, UniProt Q96GD4). Nature of the data set: Binding affinity to human AURKB assessed as displacement of immobilized ligand by KINOMEscan scanMAX assay relative to control.
T7 sequence (Q96GD4 whole entry): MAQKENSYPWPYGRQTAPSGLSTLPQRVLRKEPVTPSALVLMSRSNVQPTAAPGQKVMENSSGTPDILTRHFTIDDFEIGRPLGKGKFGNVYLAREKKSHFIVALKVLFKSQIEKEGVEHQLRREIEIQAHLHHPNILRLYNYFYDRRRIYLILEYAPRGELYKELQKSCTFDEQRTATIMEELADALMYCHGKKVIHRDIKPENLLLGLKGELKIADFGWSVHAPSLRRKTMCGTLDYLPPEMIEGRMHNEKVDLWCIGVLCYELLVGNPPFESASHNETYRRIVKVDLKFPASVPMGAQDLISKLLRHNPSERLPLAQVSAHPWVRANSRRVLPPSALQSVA
Data set [12] deals with T8, Calcium/calmodulin-dependent protein kinase kinase 1 (Homo sapiens, UniProt Q8N5S9). Put plainly: Binding affinity to human CAMKK1 assessed as displacement of immobilized ligand by KINOMEscan scanMAX assay relative to control.
T8 sequence (Q8N5S9 whole entry): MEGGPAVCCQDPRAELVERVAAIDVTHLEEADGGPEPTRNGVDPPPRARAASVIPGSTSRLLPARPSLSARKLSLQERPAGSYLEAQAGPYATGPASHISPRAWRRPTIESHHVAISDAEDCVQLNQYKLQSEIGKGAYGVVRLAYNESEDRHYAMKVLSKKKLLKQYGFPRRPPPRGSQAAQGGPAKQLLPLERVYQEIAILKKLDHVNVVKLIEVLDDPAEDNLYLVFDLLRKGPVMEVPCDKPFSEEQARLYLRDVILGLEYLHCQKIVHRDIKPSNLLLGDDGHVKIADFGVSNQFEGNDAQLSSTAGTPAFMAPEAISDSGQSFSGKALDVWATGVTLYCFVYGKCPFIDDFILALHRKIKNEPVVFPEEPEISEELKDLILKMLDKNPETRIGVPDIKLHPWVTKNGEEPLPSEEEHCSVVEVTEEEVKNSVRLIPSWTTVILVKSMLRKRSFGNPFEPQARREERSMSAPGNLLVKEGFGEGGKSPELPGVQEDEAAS
The target in data set [13] is T9, Serine/threonine-protein kinase 38-like (Homo sapiens, UniProt Q9Y2H1). Put plainly: Binding affinity to human STK38L assessed as displacement of immobilized ligand by KINOMEscan scanMAX assay relative to control.
T9 sequence (Q9Y2H1 whole entry): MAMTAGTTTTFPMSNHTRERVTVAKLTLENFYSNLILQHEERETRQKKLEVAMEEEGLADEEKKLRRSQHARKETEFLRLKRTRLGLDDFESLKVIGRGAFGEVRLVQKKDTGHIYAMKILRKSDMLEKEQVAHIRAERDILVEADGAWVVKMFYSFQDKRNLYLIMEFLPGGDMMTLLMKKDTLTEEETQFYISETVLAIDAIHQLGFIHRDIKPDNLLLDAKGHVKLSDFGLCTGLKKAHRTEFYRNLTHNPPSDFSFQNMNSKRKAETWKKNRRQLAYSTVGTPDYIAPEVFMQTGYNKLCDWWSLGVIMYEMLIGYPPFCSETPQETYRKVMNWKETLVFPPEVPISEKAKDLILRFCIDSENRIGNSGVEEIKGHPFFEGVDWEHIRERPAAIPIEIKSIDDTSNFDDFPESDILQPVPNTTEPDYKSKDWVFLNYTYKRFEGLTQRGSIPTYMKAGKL
The target of data set [14] is T10, Serine/threonine-protein kinase 17A (Homo sapiens, UniProt Q9UEE5).
T10 sequence (Q9UEE5 whole entry): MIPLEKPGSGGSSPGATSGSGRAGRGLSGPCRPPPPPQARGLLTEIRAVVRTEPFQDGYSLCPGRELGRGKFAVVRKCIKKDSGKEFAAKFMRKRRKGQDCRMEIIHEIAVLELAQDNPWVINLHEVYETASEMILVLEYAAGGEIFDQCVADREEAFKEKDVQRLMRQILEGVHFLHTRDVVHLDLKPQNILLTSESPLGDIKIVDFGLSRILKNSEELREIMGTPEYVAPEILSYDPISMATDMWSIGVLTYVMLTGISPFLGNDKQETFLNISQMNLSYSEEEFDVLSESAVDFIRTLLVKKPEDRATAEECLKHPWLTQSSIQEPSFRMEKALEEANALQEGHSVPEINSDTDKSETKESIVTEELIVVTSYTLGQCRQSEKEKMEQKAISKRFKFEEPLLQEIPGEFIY
Put plainly: Binding affinity to human STK17A assessed as displacement of immobilized ligand by KINOMEscan scanMAX assay relative to control.

Data set [15] deals with T2, Hepatocyte growth factor receptor. Put plainly: Inhibition of human MET in presence of ATP at Km level.
Data set [16] deals with T3, Serine/threonine-protein kinase Nek6. Nature of the data set: Inhibition of human NEK6 in presence of ATP at Km level.
The target of data set [17] is T4, Serine/threonine-protein kinase pim-2. Put plainly: Inhibition of human PIM2 in presence of ATP at Km level.
The target in data set [18] is T5, Wee1-like protein kinase. Put plainly: Inhibition of human WEE1 in presence of ATP at Km level.
Data set [19] concerns the target T1, Serine/threonine-protein kinase 17B. Put plainly: Inhibition of human STK17B in presence of ATP at Km level.
Data set [20] concerns the target T6, Calcium/calmodulin-dependent protein kinase kinase 2. Put plainly: Inhibition of human CAMKK2 in presence of ATP at Km level.
Data set [21] addresses T7, Aurora kinase B. Nature of the data set: Inhibition of human AURKB in presence of ATP at Km level.
Data set [22] concerns the target T8, Calcium/calmodulin-dependent protein kinase kinase 1. Put plainly: Inhibition of human CAMKK1 in presence of ATP at Km level.
The target of data set [23] is T9, Serine/threonine-protein kinase 38-like. Put plainly: Inhibition of human STK38L in presence of ATP at Km level.
In data set [24] the target is T10, Serine/threonine-protein kinase 17A. Nature of the data set: Inhibition of human STK17A in presence of ATP at Km level.
The target in data set [25] is T6, Calcium/calmodulin-dependent protein kinase kinase 2. Put plainly: Binding affinity to human CAMKK2 incubated for 2 hrs by nano-BRET assay based cellular target engagement assay. Background: Bioluminescence resonance energy transfer reports proximity on the nanometre scale.
The target in data set [26] is T7, Aurora kinase B. Nature of the data set: Binding affinity to human AURKB incubated for 2 hrs by nano-BRET assay based cellular target engagement assay.
Data set [27] concerns the target T9, Serine/threonine-protein kinase 38-like. Nature of the data set: Binding affinity to human STK38L incubated for 2 hrs by nano-BRET assay based cellular target engagement assay.
The target in data set [28] is T10, Serine/threonine-protein kinase 17A. Put plainly: Binding affinity to human STK17A incubated for 2 hrs by nano-BRET assay based cellular target engagement assay.
Data set [29] concerns the target T1, Serine/threonine-protein kinase 17B.
In data set [30] the target is T10, Serine/threonine-protein kinase 17A. Put plainly: Binding affinity to STK17A (unknown origin) by KINOMEscan scanMAX assay.
Data set [31] shares this target. Nature of the data set: Inhibition of STK17A (unknown origin) incubated for 90 mins by Kinase seeker split luciferase assay.
For data set [32], the target named is T11, Homeodomain-interacting protein kinase 4 (Homo sapiens, UniProt Q8NE63).
T11 sequence (Q8NE63 whole entry): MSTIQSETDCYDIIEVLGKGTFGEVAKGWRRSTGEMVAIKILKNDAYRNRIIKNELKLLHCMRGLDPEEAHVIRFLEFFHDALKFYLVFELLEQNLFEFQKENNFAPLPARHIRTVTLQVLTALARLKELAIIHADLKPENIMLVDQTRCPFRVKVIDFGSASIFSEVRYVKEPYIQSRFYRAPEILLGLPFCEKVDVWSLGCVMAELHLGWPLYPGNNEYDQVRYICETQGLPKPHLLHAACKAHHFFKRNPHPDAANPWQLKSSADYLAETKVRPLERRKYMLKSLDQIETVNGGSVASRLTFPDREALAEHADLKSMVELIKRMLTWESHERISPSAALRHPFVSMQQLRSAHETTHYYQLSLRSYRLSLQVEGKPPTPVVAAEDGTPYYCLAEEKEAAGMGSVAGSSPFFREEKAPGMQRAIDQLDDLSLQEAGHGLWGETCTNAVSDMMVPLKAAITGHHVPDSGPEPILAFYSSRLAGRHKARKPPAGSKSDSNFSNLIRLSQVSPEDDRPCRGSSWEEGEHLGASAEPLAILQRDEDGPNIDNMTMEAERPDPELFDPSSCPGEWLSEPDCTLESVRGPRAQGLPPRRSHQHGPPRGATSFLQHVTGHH
Put plainly: Binding affinity to human HIPK4 by KINOMEscan scanMAX assay.

T4 sequence (Q9P1W9 whole entry): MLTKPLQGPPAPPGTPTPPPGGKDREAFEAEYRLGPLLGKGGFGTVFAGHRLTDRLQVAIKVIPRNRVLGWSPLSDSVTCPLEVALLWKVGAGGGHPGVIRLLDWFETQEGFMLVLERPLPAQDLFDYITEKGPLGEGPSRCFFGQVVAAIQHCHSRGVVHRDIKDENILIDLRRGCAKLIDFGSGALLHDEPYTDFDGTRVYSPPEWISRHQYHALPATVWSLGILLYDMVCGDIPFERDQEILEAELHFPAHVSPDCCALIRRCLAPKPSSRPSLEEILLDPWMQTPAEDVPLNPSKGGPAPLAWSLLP
T5 sequence (P30291 whole entry): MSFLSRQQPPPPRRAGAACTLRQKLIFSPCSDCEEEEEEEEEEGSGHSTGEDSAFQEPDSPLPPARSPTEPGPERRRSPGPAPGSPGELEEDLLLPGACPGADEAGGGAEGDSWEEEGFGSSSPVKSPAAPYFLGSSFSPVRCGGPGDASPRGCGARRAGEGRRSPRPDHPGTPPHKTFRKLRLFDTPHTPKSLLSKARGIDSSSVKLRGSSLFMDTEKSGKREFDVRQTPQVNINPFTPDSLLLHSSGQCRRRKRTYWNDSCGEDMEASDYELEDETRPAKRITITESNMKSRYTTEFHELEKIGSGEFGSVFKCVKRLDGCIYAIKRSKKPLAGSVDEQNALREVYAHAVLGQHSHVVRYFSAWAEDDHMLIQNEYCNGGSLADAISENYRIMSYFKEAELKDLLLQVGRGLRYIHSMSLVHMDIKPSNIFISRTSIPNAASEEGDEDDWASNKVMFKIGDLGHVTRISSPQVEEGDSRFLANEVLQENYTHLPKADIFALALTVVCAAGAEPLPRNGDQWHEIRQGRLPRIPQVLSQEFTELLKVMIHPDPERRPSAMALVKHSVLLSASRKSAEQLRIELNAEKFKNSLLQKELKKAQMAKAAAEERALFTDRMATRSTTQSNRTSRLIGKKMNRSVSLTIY

Usually Kd stands for a measure of binding affinity in units of concentration. A word on the IC50: it is the concentration that gives 50% inhibition. For `O=C(O)CSc1ncnc2cc(-c3cc4ccccc4s3)sc12`, the Kd was 5.6 nM in data set [1]; greater than 10000 nM in data set [5]; greater than 10000 nM in data set [6]; 1500 nM in [7]; greater than 10000 nM in data set [8]; 5.6 nM in data set [9]. For the same compound, the Kd in data set [10] is 21 nM; in data set [11], 110 nM; in data set [12] it was 49 nM; in data set [13], greater than 10000 nM; in data set [14], 440 nM. Besides, the IC50 in data set [2] was 34 nM; in [15] it was greater than 10000 nM; in data set [16] it was greater than 10000 nM; in data set [17], greater than 10000 nM; in data set [18], greater than 10000 nM; in data set [19], 34 nM. For the same compound, the IC50 was greater than 10000 nM in [20]; 8900 nM in data set [21]; 5200 nM in data set [22]; greater than 10000 nM in [23]; 4700 nM in [24]; 2400 nM in data set [25]. Further, the half-inhibitory concentration (IC50) in data set [26] is greater than 10000 nM; in data set [27], greater than 10000 nM; in data set [28] it was greater than 10000 nM; in data set [29] it was 190 nM. The remaining at 0.5 h, 100 µM in [3] was found to be 63%. In addition, in [4], the solubility kinetic worked out at 5 µg/mL (≈ 13.9 µM).
For the compound `O=C(O)CSc1ncnc2sc(-c3cc4ccccc4s3)cc12`, the Kd in data set [30] is 9800 nM; in [1] it was 910 nM; in [32], 290 nM. The IC50 in data set [2] was 4800 nM; in data set [31] it was greater than 10000 nM; in data set [29], greater than 10000 nM.
